Experimental data reported in US20160175249A1, “Liposomes Containing Oligopeptide Fragments of Myelin Basic Protein, a Pharmaceutical Composition and a Method for Treatment of Multiple Sclerosis” (LIPOXEN TECHNOLOGIES LIMITED, priority 2009, published 2016).

Assays:
[1] = test system: experimental allergic encephalomyelitis (EAE) in DA rats; assay: Treatment of EAE in DA rats with liposomally encapsulated MBP peptides (Example 5); format: in vivo; details: 150 μg per animal daily subdermally days 6-11, score 0-5
Protocol: To induce experimental allergic encephalomyelitis (EAE) in DA rats having a mass of 220-250 g ([…]), 10 μg of myelin basic protein encephalogenic peptide fragment ARTTHYGSLPQKSQRSQ (SEQ ID NO:4; Anaspec, US) emulsified in Freund's complete adjuvant (Difco, US) at a concentration of 10% (m/v) was subdermally injected into the forepaw. The rats were weighted and monitored for EAE neurological symptoms daily. The EAE symptom profile of each rate was scored according to the following scale: (0)—absence of EAE symptoms; (1)—decrease in tail tonicity; (2)—decrease in righting reflex; (3)—paresis; (4)—full paralysis; and (5)—agony or death. Intermediary symptoms were scored by increasing or decreasing the value by 0.5 units. Six days after EAE induction, animals were randomly distributed into several groups (12 animals each).
Between days six and eleven after induction, rats in each respective group were subdermally injected with the liposomal preparation described in Example 2 (emulsified in phosphate saline solution, pH 7.4), a positive control preparation of glatiramer acetate (GA; copaxone, Teva Pharmaceutical Industries Ltd, Israel), a prototype peptide: DENPVVIIFFKNIVTPRT (SEQ ID NO:5), or a buffered phosphate saline solution (pH 7.4) placebo. The peptide, Glatiramer acetate, and liposomal preparations were formulated immediately prior to administration using buffered phosphate saline solution (pH 7.4). 0.1 mL of each composition was administered daily at a concentration of 150 μg per animal.

[2] = test system: multiple sclerosis (cerebrospinal form, remissive course); assay: Treatment of a human subject diagnosed with multiple sclerosis (Example 7); format: in vivo; details: patient, 500 mg once every two weeks
Description: A patient diagnosed with multiple sclerosis (cerebrospinal form, remissive course), in the relapse stage, was previously subjected to repeated corticosteroid treatment. […] At the time of treatment, the patient presented with: lateral nystagmus when looking to the right, active tendon reflex, S<D in the legs, active upper abdominal reflex, absent middle and lower abdominal reflex, bilateral Babinski's symptom, foot clonus (more expressed in the right foot), no paresis in the extremities, muscle tonicity unchanged, ataxic gait, loss of balance in the Romberg stance, ataxia when performing hccl-shin test, and urine retention. The value of the patient's neurological deficit on the EDSS scale was 6.
The patient also presented with ophthalmic blanching of temporal halves of optic nerve heads. After studying the patient's PBMC, the activity of T-lymphocytcs with respect to MBP was determined at a stimulation index (SI) of 7.45. Levels of serum IgG antibodies were 75 units per ml.
With the patient's consent, the prototype peptide composition was administered once every two weeks at a dosage of 500 mg. 7 days after each injection, the patient's peripheral (venous) blood was sampled in order to determine changes in T-lymphocyte activity with respect to MBP, as well as autoantibody levels. […] At week four, the patients IgG autoantibody level increased to 112 units per mL, and T-cell SI doubled. […]

## DENPVVIIFFKNIVTPRT (a prototype peptide) [prototype peptide used as comparator]
[1]; day 0 after EAE induction
  Evaluation of EAE symptom intensity, average: 0.00
[1]; day 1 after EAE induction
  Evaluation of EAE symptom intensity, average: 0.00
[1]; day 2 after EAE induction
  Evaluation of EAE symptom intensity, average: 0.00
[1]; day 3 after EAE induction
  Evaluation of EAE symptom intensity, average: 0.00
[1]; day 4 after EAE induction
  Evaluation of EAE symptom intensity, average: 0.00
[1]; day 5 after EAE induction
  Evaluation of EAE symptom intensity, average: 0.00
[1]; day 6 after EAE induction
  Evaluation of EAE symptom intensity, average: 0.00
[1]; day 7 after EAE induction
  Evaluation of EAE symptom intensity, average: 0.00
[1]; day 8 after EAE induction
  Evaluation of EAE symptom intensity, average: 0.58
[1]; day 9 after EAE induction
  Evaluation of EAE symptom intensity, average: 1.33
[1]; day 10 after EAE induction
  Evaluation of EAE symptom intensity, average: 2.42
[1]; day 11 after EAE induction
  Evaluation of EAE symptom intensity, average: 2.33
[1]; day 12 after EAE induction
  Evaluation of EAE symptom intensity, average: 2.50
[1]; day 13 after EAE induction
  Evaluation of EAE symptom intensity, average: 2.17
[1]; day 14 after EAE induction
  Evaluation of EAE symptom intensity, average: 2.00
[1]; day 15 after EAE induction
  Evaluation of EAE symptom intensity, average: 1.83
[1]; day 16 after EAE induction
  Evaluation of EAE symptom intensity, average: 1.67
[1]; day 17 after EAE induction
  Evaluation of EAE symptom intensity, average: 1.33
[1]; day 18 after EAE induction
  Evaluation of EAE symptom intensity, average: 1.42
[1]; day 19 after EAE induction
  Evaluation of EAE symptom intensity, average: 1.08
[1]; day 20 after EAE induction
  Evaluation of EAE symptom intensity, average: 0.83
[1]; day −1 after EAE induction
  Evaluation of EAE symptom intensity, average: 0.00
[2]; over the course of 7 weeks
  clinical presentation of MS: progressed slightly
[2]; week four, before treatment 7.45
  T-cell SI: doubled
